Entries after “also recorded” stand apart in the source; their conditions may differ. Where no end group is shown, it is not given here. [ ]: non-standard residue; d: D form. Ahx = NCCCCCC(=O)O

The values that follow come from US7786257B2, “Signal-1/signal-2 bifunctional peptide inhibitors” (priority 2000, dated 2010).

The test system of experiment [1] is MHC-II and ICAM-1 on NOD spleenocytes. Nature of the experiment: Inhibition of biotinylated BPI binding to NOD spleenocytes by monoclonal antibodies to MHC-II or ICAM-1. The arrangement: species or system mouse. To be noted: mAb 10-3.62 or 3E2 at 5 μg/ml. Here is the method:
(§1) Specifically, it was verified that the peptide binds to MHC molecules on live APC. Briefly, spleen cell density-gradient fractions (from mice), or PBL, or APC lines (from humans) were incubated in round bottom 96-well plates with increasing concentrations of individual biotinylated peptides at 37° C., 5% CO2 for 16 hours. Following binding of the BPI to the APC, Avidin-FITC was incubated with the cells on ice for 30 minutes, followed by biotinylated anti-Avidin for 1 hour, then again with Avidin-FITC. For BPI titrations, increasing concentrations (0.1-100 μM) of the biotinylated derivatives in sterile 0.5% BSA-PBS were incubated with the APC for 16 hours as above. […] Three-color analyses used Cy-Chrome or PE-conjugated antibodies to known surface markers of APC that were commercially available. Avidin-FITC and biotinylated anti-Avidin detection of the bound peptide was as previously described in Murray et al., 24 Eur. J. Immunol. 2337-2344 (1994); Murray; 19 Immunology Today 157-163; and Schountz et al., 157 The Journal of Immunology 3893-3901 (1996). […]
However, either purified 10-3.62 (anti-MHC-II) or 3E2 (anti-ICAM-1) were included in the overnight incubation of the spleen cells with the biotinylated BPI. […] Analyses were gated on forward/side scatter dotplots for live lymphocytes and 20,000 events were analyzed for each histogram.

The test system of the next experiment is NOD mice. Nature of the experiment: Lymphocytic infiltration of pancreatic islets (insulitis) in NOD mice, histological scoring. It is filed as in vivo, mouse. An excerpt: To evaluate the disease process by immunohistology (see, e.g., FIG. 12A-D), spleen, pancreas, or other target organs, e.g., the CNS for the MDP peptide BPI, or lung for the RSV peptide BPI, were removed from euthanized mice of each group and prepared for histology by fixing in neutral buffered formalin and embedding in paraffin, or snap frozen in O.C.T. medium. For scoring inflammation, minimums of five sections from each mouse were used to assess the blocking affect of a given BPI. For characterization of standard T-cell markers on cellular infiltrates, biotinylated mAb to various cell surface antigens will be incubated individually with the Cryostat sections (2 hours), followed by avidin-alkaline phosphatase (Vector laboratories). Alternatively, cell subsets will be phenotyped by standard flow cytometry methods as described in Murray et al., 24 Eur. J. Immunol. 2337-2344 (1994); Murray; 19 Immunology Today 157-163; and Schountz et al., 157 The Journal of Immunology 3893-3901 (1996). Finally, the students t-test or ANOVA will be used to estimate the statistical significance of differences observed between groups and individual mice.
These studies sought to confirm that the BPI containing the immunodominant GAD65 TCR epitope (EGAD-BPI) was biologically active in vivo and inhibited the development of pancreatic inflammation. Groups of three normal glycemic NOD males (8 weeks old) were immunized with the GAD65 (208-217) peptide in CFA as described in Example 4. The control group received PBS, and separate experimental groups received either the EGAD-BPI, the GAD peptide alone (i.e., the T-cell receptor epitope), or the CD11a peptide alone(i.e., the second signal receptor moiety) by two intravenous injections as described in Example 4. On day 10, the pancreata were removed to 10% PBS-buffered formalin, embedded in paraffin, and five-micron serial sections were examined histologically for mononuclear cell infiltration as previously described by Yoon, et al., Control of Autoimmune Diabetes in NOD Mice by GAD Expression or Suppression in β Cells, 284 Science 1183-1187 (1999), the entirety of which is hereby incorporated by reference.

In experiment [2] the test system is MHC-II and ICAM-1 molecules on the APC surface. Nature of the experiment: Co-capping of ICAM-1 with MHC-II on APC from i.v. treated NOD mice (fluorescence microscopy). To be noted: T-depleted spleenocytes from NOD mice 16 hours after i.v. injection of 40 nanomoles; bio-10-3.62/streptavidin. It is filed as cell-based, mouse. The protocol:
as §1, with “Immunol.” for “Immunol. 2337-2344 (1994); Murray; 19 Immunology Today 157-163; and Schountz et al., 157 The Journal of Immunology 3893-3901 (1996).”
Further support for simultaneous binding of the BPI to MHC-II and ICAM-1 molecules has been observed in co-capping experiments using biotinylated mAb 10-3.62 and streptavidin to cap MHC-II in the presence or absence of the BPI. […] The cells are plated and observed for evidence that a given BPI links ICAM-1 into the MHC-II cap, i.e., by standard fluorescence microscopy and image analysis.

Consider “GAD65(208-217)-[Ac-G-Ac-G-Ac]-CD11a (237-247) (EIAPVFVLLE[Ahx]G[Ahx]G[Ahx]ITDGEATDSG) [EGAD-BPI]”, for which the “BPI binding in presence of monoclonal antibody to MHC-II or ICAM-1” value in experiment [1] is reported as “effectively block binding”; in experiment [1] (listed as BPI) it was “blocked BPI binding”. For the same substance, the “intact / normal islets without infiltration (grade-0 islets), percentage of islets examined” value with NOD mice (NOD males, GAD65 peptide in CFA, two i.v. injections of 40 nanomoles, day 10) was “Over 95%”. Further, the “mononuclear cell infiltration of islets (insulitis), in words” value with NOD mice (NOD males, day 10, histology) was “clear inhibitory effect; also recorded: predominately intact”. Moreover, the inhibition of insulitis with NOD mice (compared to the PBS control, calculated from % islets at grade 1-4) is 84%. Besides, the “co-capping of ICAM-1 with MHC-II” value in experiment [2] was “exhibited co-capping of ICAM-1 with MUC-II; also recorded: ICAM-1 was co-capped with MHC-II”.
